Data: the supplement of paper PMC4862054

Key:
Settings in all cases: incubation time: 72 h
BT-474 [1] = assay: normalised response (% of control), CellTox Green; higher = less cell death (100 = DMSO, 0 = benzethonium chloride kill control)
Outline: (§1)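 Breast cancer cell lines in 20 µl suspension were added to 384-well plates containing compound at 5 concentrations, spaced in 10-fold steps across a 10,000-fold range chosen for each compound, and incubated for 72 h. CellTox Green fluorescence was read at 485/520 nm, followed by CellTiter-Glo luminescence after 10 min at room temperature. Signals on each plate were normalised so that 0.1 % DMSO equals 100 and a positive kill control equals 0. Every value in the table is the normalised signal at one concentration of the series.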

BT-549 [2] = assay: as above
Outline: as §1

CAL-120 [3] = assay: as above
Outline: as §1

CAL-148 [4] = assay: as above
Outline: as §1

CAL-51 [5] = assay: as above
Outline: as §1

CAL-85-1 [6] = assay: as above
Outline: as §1

DU-4475 [7] = assay: as above
Outline: as §1

HCC1143 [8] = assay: as above
Outline: as §1

HCC1599 [9] = assay: as above
Outline: as §1

HCC1937 [10] = assay: as above
Outline: as §1

HDQ-P1 [11] = assay: as above
Outline: as §1

Hs578T [12] = assay: as above
Outline: as §1

MCF-10A [13] = assay: as above
Outline: as §1

MDA-MB-231 [14] = assay: as above
Outline: as §1

MDA-MB-436 [15] = assay: as above
Outline: as §1

MDA-MB-453 [16] = assay: as above
Outline: as §1

MDA-MB-468 [17] = assay: as above
Outline: as §1

MFM-223 [18] = assay: as above
Outline: as §1

BT-474 [19] = assay: normalised response (% of control), CellTiter-Glo; higher = more viable cells (100 = DMSO, 0 = benzethonium chloride kill control)
Outline: as §1

BT-549 [20] = assay: as above
Outline: as §1

CAL-120 [21] = assay: as above
Outline: as §1

CAL-148 [22] = assay: as above
Outline: as §1

CAL-51 [23] = assay: as above
Outline: as §1

CAL-85-1 [24] = assay: as above
Outline: as §1

DU-4475 [25] = assay: as above
Outline: as §1

HCC1143 [26] = assay: as above
Outline: as §1

HCC1599 [27] = assay: as above
Outline: as §1

HCC1937 [28] = assay: as above
Outline: as §1

HDQ-P1 [29] = assay: as above
Outline: as §1

Hs578T [30] = assay: as above
Outline: as §1

MCF-10A [31] = assay: as above
Outline: as §1

MDA-MB-231 [32] = assay: as above
Outline: as §1

MDA-MB-436 [33] = assay: as above
Outline: as §1

MDA-MB-453 [34] = assay: as above
Outline: as §1

MDA-MB-468 [35] = assay: as above
Outline: as §1

MFM-223 [36] = assay: as above
Outline: as §1

SK-BR-3 = assay: as above
Outline: as §1

Row | Structure (SMILES) | normalised response (BT-474 [1]) [%] | normalised response (BT-549 [2]) [%] | normalised response (CAL-120 [3]) [%] | normalised response (CAL-148 [4]) [%] | normalised response (CAL-51 [5]) [%] | normalised response (CAL-85-1 [6]) [%] | normalised response (DU-4475 [7]) [%] | normalised response (HCC1143 [8]) [%] | normalised response (HCC1599 [9]) [%] | normalised response (HCC1937 [10]) [%] | normalised response (HDQ-P1 [11]) [%] | normalised response (Hs578T [12]) [%] | normalised response (MCF-10A [13]) [%] | normalised response (MDA-MB-231 [14]) [%] | normalised response (MDA-MB-436 [15]) [%] | normalised response (MDA-MB-453 [16]) [%] | normalised response (MDA-MB-468 [17]) [%] | normalised response (MFM-223 [18]) [%] | normalised response (BT-474 [19]) [%] | normalised response (BT-549 [20]) [%] | normalised response (CAL-120 [21]) [%] | normalised response (CAL-148 [22]) [%] | normalised response (CAL-51 [23]) [%] | normalised response (CAL-85-1 [24]) [%] | normalised response (DU-4475 [25]) [%] | normalised response (HCC1143 [26]) [%] | normalised response (HCC1599 [27]) [%] | normalised response (HCC1937 [28]) [%] | normalised response (HDQ-P1 [29]) [%] | normalised response (Hs578T [30]) [%] | normalised response (MCF-10A [31]) [%] | normalised response (MDA-MB-231 [32]) [%] | normalised response (MDA-MB-436 [33]) [%] | normalised response (MDA-MB-453 [34]) [%] | normalised response (MDA-MB-468 [35]) [%] | normalised response (MFM-223 [36]) [%] | normalised response (SK-BR-3) [%]
1 | CN(C)/N=N/c1[nH]cnc1C(N)=O [Dacarbazine] (100 nM) | 101 | 96.7 | 101 | 106 | 110 | 105 | 102 | 82.8 | 101 | 106 | 105 | 79.5 | 107 | 101 | 100 | 99.6 | 85.4 | 105 | 96.8 | 115 | 101 | 105 | 101 | 106 | 105 | 112 | 92 | 102 | 98.5 | 103 | 100 | 107 | 102 | 103 | 100 | 105 | 107
2 | CCC1=C[C@@H]2CN(C1)Cc1c([nH]c3ccccc13)[C@@](C(=O)OC)(c1cc3c(cc1OC)N(C)[C@H]1[C@@](O)(C(=O)OC)[C@H](OC(C)=O)[C@]4(CC)C=CCN5CC[C@]31[C@@H]54)C2 [Vinorelbine] (100 nM) | 76.3 | 80.3 | 84.8 | 67.3 | 28.6 | 51.3 | 101 | 85.7 | 90.6 | 88.4 | 93.5 | 49.2 | -12.8 | 71.5 | 90.9 | 83.8 | 29.7 | 59.8 | 70.2 | 31.6 | 58.1 | 42.8 | 68.2 | 31.1 | 91.7 | 45.6 | 62.8 | 71.4 | 75.8 | 48.1 | 59.5 | 74.9 | 38.8 | 59.7 | 21 | 59.8 | 10.4
3 | C[C@]12CC[C@@H]3c4ccc(O)cc4C[C@@H](CCCCCCCCC[S+]([O-])CCCC(F)(F)C(F)(F)F)[C@H]3[C@@H]1CC[C@@H]2O (stereo partly specified) [Fulvestrant] (10 nM) | 99.8 | 104 | 101 | 104 | 109 | 102 | 103 | 107 | 105 | 121 | 97.2 | 100 | 104 | 115 | 107 | 79.4 | 86.1 |  | 104 | 106 | 103 | 105 | 111 | 97.9 | 101 | 105 | 108 | 92.8 | 96.1 | 102 | 109 | 106 | 103 | 103 | 108 | 104 | 105
4 | C[C@@H](Oc1cc(-c2cnn(C3CCNCC3)c2)cnc1N)c1c(Cl)ccc(F)c1Cl [Crizotinib] (10 nM) | 100 | 98.6 | 107 | 102 | 84.9 | 89.3 | 103 | 89.3 | 109 | 90.5 | 96.1 | 105 | 80.3 | 88.4 | 65.4 | 105 | 230 | 105 | 102 | 96.7 | 100 | 100 | 57.6 | 93.5 | 103 | 102 | 97.4 | 98.2 | 93.6 | 99.9 | 101 | 104 | 99 | 107 | 92.7 | 99.3 | 97.3
5 | N[C@@H](CSC(c1ccccc1)(c1ccccc1)c1ccccc1)C(=O)O [S-trityl-L-cysteine] (400 nM) | 94.5 | 71.8 | 97.1 | 80.7 | 110 | 99.5 | 97.9 | 111 | 101 | 61.4 | 109 | 79.2 | 109 | 104 | 72.6 | 102 | 125 | 102 | 102 | 100 | 104 | 102 | 105 | 102 | 101 | 102 | 112 | 98.2 | 99 | 97.3 | 92.4 | 101 | 98.9 | 104 | 105 | 103 | 93.5
6 | CC(=O)Nc1ccc(C(=O)Nc2ccccc2N)cc1 [Tacedinaline] (10 nM) | 96.6 | 85.9 | 98.8 | 95 | 83.3 | 105 | 101 | 96.9 | 99.9 | 97.9 | 104 | 106 | 104 | 108 | 80.4 | 89.7 | 133 | 97.2 | 101 | 102 | 102 | 105 | 86.8 | 103 | 99.6 | 99.7 | 104 | 94.8 | 96.1 | 90.1 | 101 | 98.5 | 96.9 | 107 | 104 | 101 | 95.3
